Experimental data as given in publication PMC12541891 (MicrobiologyOpen, 2025).
Where “and” joins values, the source holds several entries; their conditions need not be identical. Equal entries are not always repeated.

Legend:
E. coli biofilm = experiment: Biofilm biomass by crystal violet (CV) assay; format: cell-based, Escherichia coli; conditions: substance alone at MIC
Experimental: (§1) For all bacterial strains considered in the study, biofilm was performed on a 96‐well plate inoculated with 200 µL of a bacterial suspension 1 × 10^6 CFU/mL and incubated 24 h at 37°C. After incubation for 4 h at 37°C, the medium was aspirated, non‐adherent cells were removed, washed with PBS and added with 200 µL of fresh medium. […] Similarly, to perform fungal biofilm, the different Candida species were grown for 24 h at 28°C on a multi‐wells plate, washed twice with sterile PBS, and then resuspended at 37°C in RPMI 1640 plus 10% FBS at 2.5 × 10^7 cells. After incubation for 3 h at 37°C in six‐well polystyrene plates, the medium was aspirated, non‐adherent cells were removed and washed with PBS.
(§2) To quantify bacterial and Candida biofilm biomass, CV, a dye able to color the biofilm matrix, was used. Firstly, after the removal of supernatant and washing with PBS, biofilm was fixed adding 100 µL of 99% methanol for 15 min. Then, methanol was rinsed off and the plates were air‐dried. Subsequently, 100 µL of a 0.1% of CV solution were added to wells and, after 20 min of contact, the plates were washed under running tap water. To dissolve the bounded CV, 150 µL of 33% of glacial acetic acid were added to wells. The absorbance was measured at 590 nm using an automatic microplate reader, Tecan Sunrise (Tecan Group Ltd., Männedorf, Switzerland).

ESBL-Ec biofilm = experiment: Biofilm biomass by crystal violet (CV) assay; format: cell-based, Escherichia coli; conditions: substance alone at MIC
Experimental: as §1, §2

C. krusei biofilm = experiment: Biofilm biomass by crystal violet (CV) assay; format: cell-based, Candida krusei; conditions: substance alone at MIC
Experimental: as §1, §2

Caco-2 cell line = experiment: MTT cytotoxicity assay; conditions: Caco-2, 24 h contact, 15-125 µg/mL tested
Experimental: (§3) These cell lines were purchased from the American Type Culture Collection (ATCC HTB‐37, Rockville, USA) and stored in liquid nitrogen. T24 cells were cultured in RPMI, supplemented with 10% FBS, 2 mM glutamine, 100 U/mL penicillin, and 100 µg/mL streptomycin. A549 and Caco‐2 cells were cultured in DMEM, supplemented with 10% FBS, 100 U/mL penicillin and 100 μg/mL streptomycin. Cultures were incubated at 37°C in a humidified 5% CO2 atmosphere.
(§4) In a 96‐well plate, 200 μL of cell suspension (10^4 cells/well) were added to each well and plates were incubated at 37°C, 5% CO2. […] Untreated cells were taken as control. After 24 h of treatment, culture medium was replaced with 200 μL of fresh medium added with MTT (5 mg/mL), then plates were incubated for 4 h at 37°C, 5% CO2 atmosphere. Afterward, culture medium with MTT was removed and 200 μl of DMSO were added to each well to dissolve the formazan crystals formed in living cells. After 15 min of incubation, the absorbance was measured at 570 nm, with the reference set at 620 nm, using the automatic microplate reader, Tecan Sunrise (Kumar et al. [2018]). Controls in all the experiments were: (i) wells without the substances assayed, as positive cells growth control; (ii) wells added with ethanol or DMSO in the same amounts in which the substances were suspended, as cells growth control in presence of the substances' solvents.

A549 cell line = experiment: MTT cytotoxicity assay; conditions: A549, 24 h contact, 15-125 µg/mL tested
Experimental: as §3, §4

Structure (SMILES): Cc1ccc(C(C)C)cc1O [Carvacrol, 2‐methyl‐5‐isopropyl phenol]
- Percentage of biomass reduction (E. coli biofilm; biofilm in formation (4 h)): 70.6%
- Percentage of biomass reduction (E. coli biofilm; preformed biofilm (24 h)): 62.2%
- Percentage of biomass reduction (ESBL-Ec biofilm; biofilm in formation (4 h)): 55.9%
- Percentage of biomass reduction (ESBL-Ec biofilm; preformed biofilm (24 h)): 59.6%
- Percentage of biomass reduction (C. krusei biofilm; biofilm in formation (3 h)): 18% and 18.4%
- Percentage of biomass reduction (C. krusei biofilm; preformed biofilm (24 h)): 39.2%
- concentrations significantly cytotoxic (Caco-2 cell line): > 31 µg/mL
- concentrations significantly cytotoxic (A549 cell line): > 31 µg/mL
